Test results: patent US20200291018A1, “TAM KINASE INHIBITORS” (SYROS PHARMACEUTICALS, INC., priority 2017, published 2020)

Experiments:
[1] = target: T1, MERTK (Homo sapiens, UniProt Q12866); experiment: TR-FRET kinase activity assay, MERTK; type: biochemical; conditions: for IC50: TR-FRET activity assay, ATP at Km, 60 minutes, read-out: Mer IC50; for Mer/Flt3 ratio (FLT3 IC50/Mer IC50): ratio calculated as FLT3 IC50/Mer IC50
T1 sequence (Q12866 21-999): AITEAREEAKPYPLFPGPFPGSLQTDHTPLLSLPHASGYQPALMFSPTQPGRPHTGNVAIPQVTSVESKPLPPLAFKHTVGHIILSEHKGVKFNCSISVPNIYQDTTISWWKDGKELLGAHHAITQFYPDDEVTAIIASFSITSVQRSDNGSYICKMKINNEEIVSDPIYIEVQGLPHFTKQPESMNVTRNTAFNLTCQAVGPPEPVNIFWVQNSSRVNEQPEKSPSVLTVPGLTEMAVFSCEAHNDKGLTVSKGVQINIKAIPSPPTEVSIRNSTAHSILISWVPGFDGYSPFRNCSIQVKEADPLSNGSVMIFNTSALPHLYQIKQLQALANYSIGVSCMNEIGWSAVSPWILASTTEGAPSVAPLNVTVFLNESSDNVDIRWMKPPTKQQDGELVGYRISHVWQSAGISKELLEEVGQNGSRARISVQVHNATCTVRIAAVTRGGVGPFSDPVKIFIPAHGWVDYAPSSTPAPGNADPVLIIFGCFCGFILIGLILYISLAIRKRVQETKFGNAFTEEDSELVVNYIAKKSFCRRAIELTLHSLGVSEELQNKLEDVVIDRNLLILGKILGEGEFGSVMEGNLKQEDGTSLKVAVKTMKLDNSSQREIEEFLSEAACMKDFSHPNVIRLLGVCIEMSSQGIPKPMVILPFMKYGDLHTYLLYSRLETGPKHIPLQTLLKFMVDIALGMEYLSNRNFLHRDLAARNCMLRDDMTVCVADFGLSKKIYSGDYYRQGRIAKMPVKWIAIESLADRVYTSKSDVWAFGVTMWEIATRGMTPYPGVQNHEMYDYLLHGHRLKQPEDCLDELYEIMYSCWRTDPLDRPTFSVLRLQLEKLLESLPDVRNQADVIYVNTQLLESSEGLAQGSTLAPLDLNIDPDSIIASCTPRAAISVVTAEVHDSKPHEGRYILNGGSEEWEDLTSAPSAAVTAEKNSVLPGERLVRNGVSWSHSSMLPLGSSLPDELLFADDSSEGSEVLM
Method in brief: (§1)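 TR-FRET signal from Eu-labeled phospho-site antibody bound to tyrosine-phosphorylated fluorescent peptide; inhibition lowers signal, giving IC50. Reactions: 50 mM HEPES pH 7.5, 10 mM MgCl2, 1 mM EGTA, 0.01% Brij 35, 1 mM DTT, ATP at Km per enzyme, 60 min, RT.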

[2] = target: T2, TYRO3 (Homo sapiens, UniProt Q06418); experiment: TR-FRET kinase activity assay, TYRO3; type: biochemical; conditions: ATP at Km, 60 minutes
T2 sequence (Q06418 41-890): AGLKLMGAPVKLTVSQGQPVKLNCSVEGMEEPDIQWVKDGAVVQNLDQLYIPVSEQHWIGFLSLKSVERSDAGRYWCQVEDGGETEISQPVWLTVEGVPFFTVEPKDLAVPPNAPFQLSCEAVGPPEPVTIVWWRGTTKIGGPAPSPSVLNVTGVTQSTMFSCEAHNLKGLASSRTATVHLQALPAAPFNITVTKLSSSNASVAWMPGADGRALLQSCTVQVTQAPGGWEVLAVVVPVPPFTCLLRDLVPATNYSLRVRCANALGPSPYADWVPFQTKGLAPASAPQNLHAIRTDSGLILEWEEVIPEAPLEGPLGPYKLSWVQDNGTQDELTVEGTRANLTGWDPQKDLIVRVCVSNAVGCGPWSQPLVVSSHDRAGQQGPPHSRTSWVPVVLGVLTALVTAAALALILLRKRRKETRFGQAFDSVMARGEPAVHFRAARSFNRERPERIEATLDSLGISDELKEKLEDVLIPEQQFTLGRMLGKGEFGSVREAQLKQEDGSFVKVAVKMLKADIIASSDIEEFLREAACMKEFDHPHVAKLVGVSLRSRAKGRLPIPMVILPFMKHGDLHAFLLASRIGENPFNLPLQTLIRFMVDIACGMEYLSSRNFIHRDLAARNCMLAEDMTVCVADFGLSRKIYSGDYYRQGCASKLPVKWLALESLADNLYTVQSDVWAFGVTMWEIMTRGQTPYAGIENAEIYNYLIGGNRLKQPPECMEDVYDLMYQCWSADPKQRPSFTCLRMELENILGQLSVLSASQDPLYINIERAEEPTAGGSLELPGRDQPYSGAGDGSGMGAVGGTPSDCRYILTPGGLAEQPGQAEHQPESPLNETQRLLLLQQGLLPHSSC
Method in brief: as §1

Row | Compound | IC50 [1] [nM] | Mer/Flt3 ratio (FLT3 IC50/Mer IC50) [1] | IC50 [2] [nM]
1 | C[C@@H](CC(F)(F)F)Nc1ncc2c(OC3CCOCC3)ncc([C@H]3CC[C@H](O)CC3)c2n1 [Compound 305] | ≤ 100 | +++ (a ratio of >100) | ≤ 100
2 | CC[C@H](C)Nc1ncc2c(OC3CCN(c4ncccn4)CC3)ncc([C@H]3CC[C@H](O)CC3)c2n1 [Compound 306] | ≤ 100 | +++ (a ratio of >100) | 100 to 1000
3 | COC[C@H](C)Nc1ncc2c(OC3CCOCC3)ncc(-c3cccc(S(=O)(=O)N(C)C)c3)c2n1 [Compound 307, (S)-3-(2-((1-methoxypropan-2-yl)amino)-5-((tetrahydro-2H-pyran-4-yl)oxy)pyrido[4,3-d]pyrimidin-8-yl)-N,N-dimethylbenzenesulfonamide] | ≤ 100 | +++ (a ratio of >100) | 100 to 1000
4 | COC[C@H](C)Nc1ncc2c(O[C@@H]3CCNCC3(F)F)ncc([C@H]3CC[C@H](O)CC3)c2n1 [Compound 308] | ≤ 100 | +++ (a ratio of >100) | 100 to 1000
5 | COC[C@H](C)Nc1ncc2c(OC3CCOCC3)ncc(-c3ccc(N)cc3)c2n1 [Compound 309] | ≤ 100 | +++ (a ratio of >100) | 100 to 1000
6 | COCCN1C(C)(C)CC(Oc2ncc([C@H]3CC[C@H](O)CC3)c3nc(N[C@@H](C)COC)ncc23)CC1(C)C [Compound 310] | ≤ 100 | +++ (a ratio of >100) | ≤ 100
7 | C[C@@H](CCF)Nc1ncc2c(OC3CCOCC3)ncc([C@H]3CC[C@H](O)CC3)c2n1 [Compound 311] | ≤ 100 | +++ (a ratio of >100) | ≤ 100
8 | COCC[C@H](C)Nc1ncc2c(OC3CCOCC3)ncc([C@H]3CC[C@H](O)CC3)c2n1 [Compound 312] | ≤ 100 | +++ (a ratio of >100) | 100 to 1000
9 | CC(C)Nc1ncc2c(OC3CCOCC3)ncc(-c3cccc(S(C)(=O)=O)c3)c2n1 [Compound 313] | ≤ 100 | +++ (a ratio of >100) | 100 to 1000
10 | COC[C@H](C)Nc1ncc2c(OC3CCOCC3)ncc(-c3cnn([C@@H]4CCN(C)C4)c3)c2n1 [Compound 314] | 100 to 1000 | ++ (a ratio of between 10 and 100) | 100 to 1000
11 | COC[C@H](C)Nc1ncc2c(OC3CCOCC3)ncc([C@H]3CC[C@H](NC(C)=O)CC3)c2n1 [Compound 315] | ≤ 100 | +++ (a ratio of >100) | 100 to 1000
12 | COC[C@H](C)Nc1ncc2c(OC3CCOCC3)ncc([C@H]3CC[C@H](NS(C)(=O)=O)CC3)c2n1 [Compound 316] | ≤ 100 | +++ (a ratio of >100) | ≤ 100
13 | CNS(=O)(=O)N[C@H]1CC[C@H](c2cnc(OC3CCOCC3)c3cnc(N[C@@H](C)COC)nc32)CC1 [Compound 317] | ≤ 100 | +++ (a ratio of >100) | ≤ 100
14 | CC(C)Nc1ncc2c(OC3CCOCC3)ncc(-c3cccc(S(=O)(=O)C(C)C)c3)c2n1 [Compound 318] | ≤ 100 | +++ (a ratio of >100) | 100 to 1000
15 | COC[C@H](C)Nc1ncc2c(OC3CCOCC3)ncc(-c3ccc(CC#N)cc3)c2n1 [Compound 319] | ≤ 100 | +++ (a ratio of >100) | 100 to 1000
16 | COC[C@H](C)Nc1ncc2c(OC3CCOCC3)ncc(-c3cccc(C#N)c3)c2n1 [Compound 320] | 100 to 1000 | ++ (a ratio of between 10 and 100) | 100 to 1000

Row | Compound | IC50 [1] [nM] | Mer/Flt3 ratio (FLT3 IC50/Mer IC50) [1] | IC50 [2] [nM]
17 | CC[C@H](C)Nc1ncc2c(O[C@H]3CC[C@H](N)CC3)ncc([C@H]3CC[C@H](O)CC3)c2n1 [Compound 321] | ≤ 100 | +++ (a ratio of >100) | ≤ 100
18 | CN(C)S(=O)(=O)c1cccc(-c2cnc(OC3CCOCC3)c3cnc(NC4(C)CC4)nc23)c1 [Compound 322] | ≤ 100 | +++ (a ratio of >100) | 100 to 1000
19 | CN1C[C@H](Nc2ncc3c(OC4CCOCC4)ncc([C@H]4CC[C@H](O)CC4)c3n2)CC1=O [Compound 323] | ≤ 100 | +++ (a ratio of >100) | 1000 to 10000
20 | CN1C[C@@H](Nc2ncc3c(OC4CCOCC4)ncc([C@H]4CC[C@H](O)CC4)c3n2)CC1=O [Compound 324] | 100 to 1000 | ++ (a ratio of between 10 and 100) | 1000 to 10000
21 | COC[C@H](C)Nc1ncc2c(OC3CCOCC3)ncc(-c3cccc(C(N)=O)c3)c2n1 [Compound 325] | 100 to 1000 | ++ (a ratio of between 10 and 100) | 1000 to 10000
22 | COC[C@H](C)Nc1ncc2c(OC3CCOCC3)ncc([C@H]3CCCNC3)c2n1 [Compound 326] | 100 to 1000 | NS (a ratio of ≤2.0) | 100 to 1000
23 | COC[C@H](C)Nc1ncc2c(OC3CCOCC3)ncc([C@@H]3CCCNC3)c2n1 [Compound 327] | 100 to 1000 | ++ (a ratio of between 10 and 100) | 1000 to 10000
24 | COC[C@H](C)Nc1ncc2c(OC3CCOCC3)ncc(-c3cccc(S(N)(=O)=O)c3)c2n1 [Compound 328] | 100 to 1000 | ++ (a ratio of between 10 and 100) | 100 to 1000
25 | COC[C@H](C)Nc1ncc2c(OC3CCOCC3)ncc([C@H]3CC[C@@](O)(C(F)(F)F)CC3)c2n1 [Compound 329] | ≤ 100 | +++ (a ratio of >100) | 100 to 1000
26 | COC[C@H](C)Nc1ncc2c(OC3CCOCC3)ncc([C@H]3CC[C@](O)(C(F)(F)F)CC3)c2n1 [Compound 330] | 100 to 1000 | ++ (a ratio of between 10 and 100) | 100 to 1000
27 | N#Cc1ccc(Nc2ncc3c(OC4CCNCC4)ncc([C@H]4CC[C@H](O)CC4)c3n2)cc1 [Compound 331] | ≤ 100 | + (a ratio of >2.0 and <10) | ≤ 100
28 | COC[C@H](C)Nc1ncc2c(OC3CCOCC3)ncc([C@H]3CCCN(C)C3)c2n1 [Compound 332] | 100 to 1000 | + (a ratio of >2.0 and <10) | 100 to 1000
29 | COC[C@H](C)Nc1ncc2c(OC3CCOCC3)ncc([C@@H]3CCCN(C)C3)c2n1 [Compound 333] | 1000 to 10000 | + (a ratio of >2.0 and <10) | 1000 to 10000
30 | COC[C@H](C)Nc1ncc2c(OC3CCOCC3)ncc(-c3cnn([C@H]4CCN(C)C4)c3)c2n1 [Compound 334] | ≤ 100 | ++ (a ratio of between 10 and 100) | 100 to 1000
31 | COC[C@H](C)Nc1ncc2c(OC3CCOCC3)ncc(-c3ccc(CO)cc3)c2n1 [Compound 335] | ≤ 100 | +++ (a ratio of >100) | 100 to 1000
